Results published in patent US8686224B2, “Plant defense signal peptides” (priority 2005, dated 2014).
Entries after “also recorded” stand apart in the source; their conditions may differ.

Assays:
[1] = target: T1, AtPep1 receptor (At1g73080, AtPEPR1) (Arabidopsis thaliana, UniProt Q9SSL9); experiment: Binding assay of 125I1-Tyr-AtPep1 with Arabidopsis suspension cultured cells
T1 sequence (Q9SSL9 29-1123): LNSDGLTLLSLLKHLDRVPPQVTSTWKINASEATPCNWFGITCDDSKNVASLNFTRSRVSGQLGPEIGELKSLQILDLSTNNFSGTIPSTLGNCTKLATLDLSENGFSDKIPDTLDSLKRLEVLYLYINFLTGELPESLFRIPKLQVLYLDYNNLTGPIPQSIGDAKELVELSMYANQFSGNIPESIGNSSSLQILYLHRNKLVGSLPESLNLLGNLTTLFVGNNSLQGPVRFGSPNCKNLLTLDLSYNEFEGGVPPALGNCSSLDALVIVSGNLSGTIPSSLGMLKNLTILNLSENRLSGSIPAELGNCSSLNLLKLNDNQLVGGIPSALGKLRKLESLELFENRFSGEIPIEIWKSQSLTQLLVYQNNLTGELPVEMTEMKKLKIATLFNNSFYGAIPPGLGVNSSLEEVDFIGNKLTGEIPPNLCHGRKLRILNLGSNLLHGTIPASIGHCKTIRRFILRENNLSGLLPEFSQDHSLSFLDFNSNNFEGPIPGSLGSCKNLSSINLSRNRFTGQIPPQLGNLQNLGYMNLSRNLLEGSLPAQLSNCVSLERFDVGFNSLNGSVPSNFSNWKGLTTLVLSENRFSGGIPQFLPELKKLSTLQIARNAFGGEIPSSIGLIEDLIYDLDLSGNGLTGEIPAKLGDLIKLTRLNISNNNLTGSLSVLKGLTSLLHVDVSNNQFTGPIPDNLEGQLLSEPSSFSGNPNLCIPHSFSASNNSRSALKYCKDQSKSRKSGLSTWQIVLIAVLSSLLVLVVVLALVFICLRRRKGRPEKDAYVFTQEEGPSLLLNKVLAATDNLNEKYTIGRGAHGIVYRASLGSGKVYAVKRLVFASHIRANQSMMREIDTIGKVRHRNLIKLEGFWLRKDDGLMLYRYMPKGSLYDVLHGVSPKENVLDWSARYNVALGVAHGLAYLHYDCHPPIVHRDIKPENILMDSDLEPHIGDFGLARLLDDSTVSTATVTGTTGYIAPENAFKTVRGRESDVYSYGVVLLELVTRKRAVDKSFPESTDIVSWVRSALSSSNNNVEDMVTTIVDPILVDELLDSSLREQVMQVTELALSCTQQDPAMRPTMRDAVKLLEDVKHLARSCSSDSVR
Description: Binding assays. […] The filtered cells were washed three times with 5 mL of cold MS medium containing 3% sucrose, suspended in 1 mL MS medium containing 3% sucrose in a glass test tube, and analyzed for total radioactivity in a gamma-ray counter (Isodata 2020; Isodata Inc., Palatine, Ill.).

[2] = system: defense gene expression in excised Arabidopsis leaves; experiment: Excised-leaf assay, semi-quantitative RT-PCR of gene expression; type: in vivo, Arabidopsis thaliana
Description: Excised-leaf assays. AtPep1 peptide dissolved in double distilled water was supplied to excised leaves of 3 to 4 week old Arabidopsis plants. Leaves were excised and the petioles were immersed in 800 μL centrifuge tubes containing either the peptide solution or distilled water, and placed in a closed clear plexiglass box containing a thin layer of water for humidity, and a small opening to allow air to enter. Boxes were incubated in a growth chamber under the plant growth conditions described above and sprayed with a fine mist of distilled water every half hour to ensure humidity and prevent wilting. To determine variations in basal levels of the AtproPep1 transcript among assays, four different leaves from four different plants were used for each treatment, and leaves supplied with either water or AtPep1 were taken from the same plants. Assays were terminated by immersing the leaves in liquid nitrogen.
Semi-quantitative RT-PCR analysis of relative gene expression levels. RNA was isolated using Trizol reagent and manufacturer's instructions (Invitrogen. Carlsbad Calif.), and 2 μg of RNA template was reverse transcribed with a RETROscript kit (Ambion, Austin Tex.). PCR reactions were carried out with ExTaq Hot Start polymerase and reagents (Fisher Scientific, Pittsburgh Pa.). The AtproPep1 forward and reverse primers with the respective sequences of 5′ […] 3′ (SEQ ID NO: 59) and 5′ […] 3′ (SEQ ID NO: 60) generated a 310 bp intron-spanning product. Primers to β-tubulin (At5g62690) of 5′ […] 3′ (SEQ ID NO: 73) and 5′ […] 3′ (SEQ ID NO: 74) generated a 681 base pair intron-spanning product. An initial denaturing/polymerase activating step of 5 minutes at 94° C. was followed by 31 repetitions of the following three steps: a thirty second denaturation phase at 94° C., a thirty second annealing period at 55.5° C., and a one minute elongation step at 72° C. The amplification program was terminated with a 10 minute final 72° C. elongation phase.
The products of each reaction were separated by electrophoresis and were visualized on a Bio Imaging System (SynGene, Frederick Md.) using GeneSnap version 6.00.26 software (SynGene, Frederick Md.). A high resolution image of the gel was analyzed using GeneTools analysis software version 3.02.00 (SynGene, Frederick Md.). Relative band intensities for each band were normalized to the β-tubulin band. A numerical ratio of amplified AtproPep1 cDNA to amplified tubulin cDNA was obtained for every sample. To calculate average values, semi-quantitative RT-PCR assays were performed in duplicate, and RNA extractions were performed in triplicate.
Analysis of gene expression using RT-PCR. Gene expression was analyzed using RT-PCR (Nishimura et al., Plant Cell 16:1365-1377, 2004).
Expression analysis of AtproPep1 in response to abiotic and biotic cues. As a first step in seeking a possible function for AtproPep1 and its encoded peptide, the basal expression level of the gene was assessed in leaves, stems, roots and flowers of Arabidopsis plants was studied using semi-quantitative RT-PCR analysis of AtproPep1 gene expression in response to treatment of leaves with MeJA, ethephon, MeSA, and AtPep1. The relative abundance of the proAtPep1 transcript was estimated from the expression of the β-tubulin gene as a control. Leaves were wounded by crushing once across the mid-vein with a hemostat. Plants were sprayed with a 250 μM solution of MeJA in 0.1% Triton X-100; with a 2 μM solution of MeSA in 0.1% Triton X-100 or with a 7 mM solution of ethephon in 0.1% Triton X-100. AtPep1 peptide (10 nM in water) was supplied through cut petioles of excised leaves. Total RNA was extracted and analyzed.
In order to determine whether AtPep1 regulates defense gene expression, we determined the fold induction of defense related genes in excised Arabidopsis leaves in response to 10 nM AtPep1 supplied through their cut petioles. […]

H-ATKVKAKQRGKEKVSSGRPGQHN-OH [AtPep1]
Kd [1]: 0.25 nM
expression of the AtproPep1 gene ([2]; 10 nM through cut petioles of excised leaves, within two hours): induced expression
expression of PDF1.2 and PR-1 ([2]; 10 nM through cut petioles, 2 hr, wild type): most strongly expressed; also recorded: induced a strong expression
expression of AtproPep1, PDF1.2 or PR-1 in mutants ([2]; 10 nM, 2 hr, triple mutant fad3-2, fad7-2, fad8 and mutant ein2-1): did not induce
expression of LOX2 and VSP2 ([2]; 10 nM, two hours, wild type): not induced
expression of PR-3, PR-4 and TAT ([2]; 10 nM, two hours, wild type): expressed at lower levels
expression of At5g64905, At5g64900, At5g64890 and At5g09980 ([2]; supplied through cut petioles of excised leaves): expressed relatively strongly
